{
  "source": "patent US20220411422A1",
  "about": "“ERBB RECEPTOR INHIBITORS” (Dizal (Jiangsu) Pharmaceutical Co., Ltd., priority 2018, published 2022)",
  "key": {"[1]": {"assay": "Blood brain barrier penetration assay in rats (short oral absorption model with blood, plasma and brain binding)", "assay_type": "in vivo", "conditions": "male, Han Wistar, CSF, Table 5, rat, read-out: Kp,uu,CSF", "procedure": "In vitro blood, plasma and brain binding assay was carried out with equilibrium dialysis device. […] At the end of incubation, a 50 μL aliquot from the receiver side and a 5 μL from the donor chamber were taken. The 5 μL sample was further diluted with 45 μL of blank blood, plasma or brain homogenate. Paired samples were matrix-matched with either buffer or blank matrix, and mixed for 2 min, and then precipitated with 150 μL cold acetonitrile with 100 ng/mL tolbutamide as internal standard. After centrifuging at 4000 rpm for 20 min, supernatant was diluted with 0.1% formic acid aqueous solution and analyzed for LC/MS/MS (API 4000, Applied Biosystems, Foster City). […] D is dilution factor. […] A Short oral absorption (SOA) model is an in-vivo screening model to identify brain penetration of a compound. Six male Han Wistar rats purchased from Beijing Vital River were orally dosed with the compound. […] Brain tissue was harvested and homogenized in 3× volume of 100 mM phosphate buffered saline (pH7.4). All samples were stored at ˜−70° C. prior to LC/MS/MS analysis. Standards were prepared by spiking blank plasma, blood, brain homogenate and artificial CSF. […] After 2 min vortex and 5 min centrifugation at 14,000 rpm, supernatant was analyzed by LC/MS/MS (API 4000, Applied Biosystems, Foster City). Two sets of standard curves were run at the beginning and end of each batch from blood sample analysis. For brain and CSF samples, one standard curve was analyzed along with test samples. Total brain levels, expressed as brain/blood ratio (Kp,brain) were measured by AUC(brain)/AUC(blood or plasma) in rodents after oral administration. Similarly, CSF levels represented by a ratio of CSF/blood exposure (Kp,CSF) were determined by AUC(CSF)/AUC(blood or plasma). Free fraction of test compound in biological matrix was determined by in vitro blood and brain binding assay. Kp,uu brain and Kp,uu CSF was calculated by the following equation: Kp,uu brain=AUC(brain)/AUC(blood or plasma)×(fubrain/fublood/plasma) and […] Moreover, the ability of Compounds 6 and 16 to cross BBB was assessed in both rat and monkey by measuring unbound brain-to-plasma partition ratio (Kpuu,brain) and unbound CSF-to-plasma partition ratio (Kpuu,CSF) with the method mentioned above."}, "pHER2": {"target": "T1, pHER2 (Homo sapiens, UniProt P04626)", "T1 construct": "pHER2 in cells expressing HER2; endogenous in cells; host or cells: BT474c1", "T1 sequence (P04626 23-1255)": "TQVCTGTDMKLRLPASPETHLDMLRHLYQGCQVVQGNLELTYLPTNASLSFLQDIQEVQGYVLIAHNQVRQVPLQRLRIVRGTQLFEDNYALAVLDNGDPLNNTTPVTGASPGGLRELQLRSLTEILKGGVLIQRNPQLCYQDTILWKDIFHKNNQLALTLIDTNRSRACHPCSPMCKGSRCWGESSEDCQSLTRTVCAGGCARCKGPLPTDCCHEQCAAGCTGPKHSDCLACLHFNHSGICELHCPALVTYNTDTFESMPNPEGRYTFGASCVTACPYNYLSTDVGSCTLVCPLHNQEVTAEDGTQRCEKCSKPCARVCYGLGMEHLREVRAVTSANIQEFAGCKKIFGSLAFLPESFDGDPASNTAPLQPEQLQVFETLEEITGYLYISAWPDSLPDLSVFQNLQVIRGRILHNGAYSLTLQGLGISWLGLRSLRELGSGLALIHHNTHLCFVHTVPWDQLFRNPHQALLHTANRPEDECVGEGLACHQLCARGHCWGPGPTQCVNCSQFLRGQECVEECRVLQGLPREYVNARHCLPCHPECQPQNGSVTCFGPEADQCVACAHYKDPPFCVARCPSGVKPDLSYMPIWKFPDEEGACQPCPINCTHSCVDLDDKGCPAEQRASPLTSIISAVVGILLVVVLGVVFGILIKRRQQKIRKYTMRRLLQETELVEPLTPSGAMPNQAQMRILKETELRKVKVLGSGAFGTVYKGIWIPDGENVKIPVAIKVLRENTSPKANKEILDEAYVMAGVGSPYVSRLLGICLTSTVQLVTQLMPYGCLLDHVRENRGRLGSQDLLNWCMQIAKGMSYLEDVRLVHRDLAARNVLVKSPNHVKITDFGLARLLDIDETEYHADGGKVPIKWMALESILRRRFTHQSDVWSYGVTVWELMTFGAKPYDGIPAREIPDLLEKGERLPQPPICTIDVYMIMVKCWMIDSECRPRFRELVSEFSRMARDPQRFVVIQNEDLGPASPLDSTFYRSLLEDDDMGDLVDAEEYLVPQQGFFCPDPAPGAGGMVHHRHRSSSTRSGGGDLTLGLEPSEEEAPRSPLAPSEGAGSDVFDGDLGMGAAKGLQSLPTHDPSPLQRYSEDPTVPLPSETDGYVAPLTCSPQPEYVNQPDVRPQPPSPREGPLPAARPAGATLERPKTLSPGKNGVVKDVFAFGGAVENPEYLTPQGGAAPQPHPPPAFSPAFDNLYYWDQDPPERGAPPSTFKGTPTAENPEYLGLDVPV", "assay": "pHER2 cellular activity in BT474c1 cell line", "assay_type": "cell-based", "procedure": "A compound's activity of selective inhibition for HER2 wild type amplification can be evaluated with BT474 cell line (ATCC® HTB-20™). The cell line expressed phosphorylated HER2 protein and its proliferation depended on the amplified gene, which could be used for in vitro PD and anti-proliferation assays.\nThe compounds' inhibition of target modulation were determined as follows: BT474 cells were sorted in 96 well plates (20000 cells/well) with the DMEM medium containing 10% FBS overnight and then treated with tested compounds at a series of concentrations (3 μM, 0.3 μM, 0.1 μM, 0.03 μM, 0.01 μM, 0.003 μM, 0.001 μM, 0.0001 μM). The plates were incubated for 4 h at 37° C. with 5% CO2 and then the HER2 (Y1248) phosphorylation level of cells in each well were measured with MSD Kit (Phospho-ErbB2 (Tyr1248) Assay Whole Cell Lysate Kit: Cat #K151CLD-3). The assay is a electrochemiluminescent method (MESO SCALE DISCOVERY) for determining both phosphorylated and total HER2 of cells with an MSD SECTOR® Imager and then the ratio of p-HER2/total HER2 can be generated by the machine. The percentage of inhibition was got from formula: % inhibition=100×[1−(ratio of sample well−ratio of Min ctrl well)/(ratio of Max−Ratio of Min ctrl well)]. The IC50 values were further calculated as the compounds concentration required for 50% inhibition in best-fit curves using Prism GraphPad 7.0 or Microsoft Xlfit software."}, "[2]": {"assay": "Clinical plasma and CSF PK in HER2+ MBC patients", "assay_type": "in vivo, human", "procedure": "The plasma concentration of Compound 6 at the dosage of 50 to 200 mg following single dose or multiple doses were tested. […] In patients with BM, averaged Kpuu,CSF was around 1.82 and 0.78 for Compound 6 and its active metabolite Compound 16, respectively."}, "wild type EGFR": {"target": "T2, wild type EGFR (Homo sapiens, UniProt P00533)", "T2 construct": "which expresses wild type EGFR protein; endogenous in cells; host or cells: A431", "T2 sequence (P00533 25-1210)": "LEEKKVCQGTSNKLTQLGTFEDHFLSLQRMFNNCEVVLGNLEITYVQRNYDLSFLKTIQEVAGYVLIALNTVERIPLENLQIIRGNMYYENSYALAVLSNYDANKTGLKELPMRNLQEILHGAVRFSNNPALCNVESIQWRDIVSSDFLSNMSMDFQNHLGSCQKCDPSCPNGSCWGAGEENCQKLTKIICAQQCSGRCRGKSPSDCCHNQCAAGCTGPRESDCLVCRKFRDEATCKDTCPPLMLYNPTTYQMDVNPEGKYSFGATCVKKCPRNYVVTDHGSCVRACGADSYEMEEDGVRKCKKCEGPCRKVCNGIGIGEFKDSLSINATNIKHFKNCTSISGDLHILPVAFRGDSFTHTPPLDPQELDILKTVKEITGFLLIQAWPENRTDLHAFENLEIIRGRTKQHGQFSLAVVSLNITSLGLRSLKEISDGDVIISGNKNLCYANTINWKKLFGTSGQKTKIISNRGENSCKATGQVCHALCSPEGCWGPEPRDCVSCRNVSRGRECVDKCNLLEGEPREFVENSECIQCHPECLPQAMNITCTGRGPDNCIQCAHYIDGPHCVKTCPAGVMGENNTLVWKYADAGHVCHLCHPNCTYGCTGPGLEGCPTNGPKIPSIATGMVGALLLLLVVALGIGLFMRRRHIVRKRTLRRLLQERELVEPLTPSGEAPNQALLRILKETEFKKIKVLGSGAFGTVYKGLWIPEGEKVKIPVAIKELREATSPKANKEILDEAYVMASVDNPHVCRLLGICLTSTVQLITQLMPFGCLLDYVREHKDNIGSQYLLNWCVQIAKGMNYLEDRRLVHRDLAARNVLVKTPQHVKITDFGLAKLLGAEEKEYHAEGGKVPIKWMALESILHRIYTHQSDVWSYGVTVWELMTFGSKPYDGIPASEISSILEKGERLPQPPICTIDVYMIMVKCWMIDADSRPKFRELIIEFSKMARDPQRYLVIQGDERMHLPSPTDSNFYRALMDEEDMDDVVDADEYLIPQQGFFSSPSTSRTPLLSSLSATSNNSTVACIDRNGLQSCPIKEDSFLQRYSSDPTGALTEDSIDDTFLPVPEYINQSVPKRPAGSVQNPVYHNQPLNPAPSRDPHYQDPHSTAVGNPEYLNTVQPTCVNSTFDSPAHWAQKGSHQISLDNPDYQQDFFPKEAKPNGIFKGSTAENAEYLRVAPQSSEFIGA", "assay": "pEGFR cellular activity in A431 cell line", "assay_type": "cell-based", "procedure": "A compound's activity of inhibition for EGFR WT can be evaluated with NCI-H838 (ATCC® CRL-5844™) and A431 cell line (the epidermoid carcinoma cell line A-431), which expresses wild type EGFR protein as the count screening to define the selectivity of the compound.\nThe compounds' inhibition of target modulation were determined as follows: NCI-H838 cells and A431 cells were sorted in 96 well plates (20000 cells/well) with the DMEM medium containing 1% FBS overnight and then treated with tested compounds at a series of concentrations (3 μM, 0.3 μM, 0.1 μM, 0.03 μM, 0.01 μM, 0.003 μM, 0.001 μM, 0.0001 μM). The plates were incubated for 4 h at 37° C. with 5% CO2 followed by the stimulation of recombinant hEGF (100 ng/ml for 10 Min, RD, Cat #236-EG) and then the EGFR (Y1068) phosphorylation level of cells in each well were measured with MSD Kit (MULTI-SPOT®96 4-Spot HB Prototype EGFR Triplex […]: pEGFR (Tyr1068), pEGFR (Tyr1173), Total EGFR (Cat #N45ZB-1). The assay is a electrochemiluminescent method (MESO SCALE DISCOVERY) for determining both phosphorylated and total EGFR of cells with an MSD SECTOR® Imager and then the ratio of p-EGFR/total EGFR can be generated by the machine. The percentage of inhibition was used the formula: % inhibition=100×[1−(ratio of sample well−ratio of Min ctrl well)/(ratio of Max−Ratio of Min ctrl well)]. […]"}},
  "note": "pIC50: −log10 of the molar value.",
  "data": [
    {"smiles": "COc1cc(O[C@H]2CCN(C)CC2(F)F)c2c(Nc3ccc(Oc4ccn5ncnc5c4)c(C)c3)ncnc2c1", "note": "(single isomer, unassigned) [Compound 6]", "values": [
      {"measurement": "Kp uu", "setting": "[1]", "value": 0.87},
      {"measurement": "selectivity between pHER2 in cells expressing HER2 and pEGFR in cells expressing wild type EGFR", "setting": "pHER2", "value": "over 300 fold"},
      {"measurement": "pIC50", "setting": "pHER2; BT474c1 cell line", "value": 8.36},
      {"measurement": "Kp uu", "setting": "[2]; human, CSF, oral, patients with BM, read-out: averaged Kpuu,CSF", "value": "~1.82"},
      {"measurement": "half-life", "setting": "[2]; human, plasma, patients, single oral dose, read-out: terminal half-life (converted)", "value": "~18", "unit": "h"},
      {"measurement": "accumulation", "setting": "[2]; patients, 15-day repeat dosing", "value": "Around 2 fold"},
      {"measurement": "drug exposure versus dose", "setting": "[2]; patients, 50 to 200 mg", "value": "increased in a dose proportional manner"},
      {"measurement": "free trough concentration versus pHER2 IC50 of BT474cl cells", "setting": "[2]; patients, doses ≥100 mg bid", "value": "above pHER2 IC50 of BT474cl cells"},
      {"measurement": "pIC50", "setting": "wild type EGFR", "value": 5.84}
    ]}
  ]
}
